Here are results for four molecules from patent publication US7968081B2, “Peptide for diagnosing, preventing and treating atherosclerosis and uses thereof” (Kyungpook National University Industry—Academic Cooperation …, priority 2007, dated 2011).

Ends that are not written are not given here. * marks the point of attachment. FITC = O=C1OC2(c3ccc(O)cc3Oc3cc(O)ccc32)c2ccc(NC(=S)*)cc21

The subject of experiment [1] is aortic atherosclerotic plaques. As to the kind of experiment: In vivo atherosclerotic targeting of selected phage clones (phage titer recovered from aorta). Also on record: species or system mice. The settings on record: tested as phage clone; SEQ ID NO: 1 versus SEQ ID NO: 2. How it is done:
C57BL/6 mice (Ldlr−/−) into which deficiency of a low-density lipoprotein (LDL) receptor was introduced by a genetic engineering technique were fed daily for 10 weeks with 3 g of high-cholesterol diet, thereby inducing atherosclerosis in animals.
Thereafter, aorta were removed from each mouse and aortic tissues were ground to collect cells. The cells were treated with 100 μl of DMEM containing 1% NP-40 at 4° C. for 10 min, and 900 μl of BL21 E. coli culture as a host was then added to recover cell-bound phages. The recover phages were subjected to titer determination by a conventional method known in the art.

The subject of experiment [2] is IL-4-induced phosphorylation of STAT6. As to the kind of experiment: IL-4-induced phosphorylation of STAT6 in THP1 monocytes differentiated into macrophages (Western blot). It counts as cell-based. Here is the method: (§1) THP1 monocytes were treated and activated with 100 ng/mL of phorbol myristate acetate (PMA) for 3 days to thereby induce differentiation into macrophages. The culture medium was replaced with a serum-free fresh medium, and the cells were cultured for 18 hours and treated with 0.67 nM of IL-4 alone for 10 min. Meanwhile, the peptide of the present invention alone or in conjunction with IL-4 was treated at concentrations of 0.67 nM (1×, one-fold concentration that of IL-4), 6.7 nM (10×, 10-fold concentration that of IL-4) and 67 nM (100×, 100-fold concentration that of IL-4) on cells which are under the same culture phase. After the reaction was complete, cells were disrupted according to a conventional method known in the art and cell lysates were subjected to electrophoresis and Western blot analysis using antibodies. As assay antibodies, STAT6 antibody and phospho-STAT6 (P-STAT6) antibody (Cell Signaling, USA), AKT antibody and phosphor-Thr308-AKT antibody or phosphor-Ser473 AKT antibody (Santa Cruz, USA) and β-actin antibody were used.

In experiment [3] the test system is IL-4-induced phosphorylation of AKT. Put plainly: IL-4-induced Thr308 and Ser473 phosphorylation of AKT in THP1 monocytes differentiated into macrophages (Western blot). It counts as cell-based. Here is the method: as §1
The test system of experiment [4] is atherosclerotic plaque tissues. As to the kind of experiment: In vivo atherosclerotic targeting of radioisotope-conjugated peptide (autoradiography of aortae). Also on record: species or system mice. The settings on record: tail vein, circulation 15 min. Here is the method: In order to evaluate in vivo targetability of an inventive peptide through a higher sensitivity method, the peptide was synthesized and then an N-terminus of the peptide was tagged with a radioisotope (^111In). The ^111In-tagged peptide of the present invention at a dose of 160 μCi was injected via the tail vein into the blood of atherosclerotic mice and normal mice, followed by circulation for 15 min. Thereafter, aortae were removed from each mouse and autoradiography with X-ray film exposure was carried out. As a control group, the ^123I-tagged peptide (^123I-CLEVSRKNC) was injected at a dose of 104 μCi.

Experiment [5] deals with atherosclerotic plaque tissues. As to the kind of experiment: In vivo atherosclerotic targeting of fluorescent dye-conjugated peptide (fluorescence microscopy of frozen sections). The settings on record: atherosclerosis-induced mice; final blood concentration 50 μM via left ventricle, circulation 15 min. An excerpt: C57BL/6 mice (Ldlr−/−) into which deficiency of a low-density lipoprotein (LDL) receptor was introduced by a genetic engineering technique were fed daily for 10 weeks with 3 g of high-cholesterol diet, thereby inducing atherosclerosis in animals. The high-cholesterol diet was a special animal feed containing 1.25% cholesterol, 15% fat and 0.5% cholate (Oriental Yeast Co., Japan).
Here, the peptide was synthesized by tagging an N-terminus of the peptide with FITC (fluorescein isothiocyanate) as a green fluorescent dye. The synthesized FITC-CRKRLDRNC peptide and a control peptide (FITC-NSSVDK) at final blood concentrations of 50 μM were injected into the atherosclerosis-induced mice via the left ventricle of animals, followed by circulation for 15 min. Thereafter, the aortae were removed from each mouse, and frozen sections were prepared, followed by Oil Red O (fat marker, Sigma-Aldrich, USA) staining or vWF (vascular endothelial cell marker, 1:5000 dilution, Abcam, USA) and Mac-3 (macrophage marker, 1:50 dilution, BD, USA) staining (Matter et al., Circulation Research, 95:1225-1233, 2004). In order to stain nuclei in tissues, a mounting medium containing a nuclear staining dye, 4′,6-diamidino-2-phenylindole (DAPI) (manufactured by Molecular Probe, USA) was treated on a slide, according to a conventional method known in the art, followed by fluorescence microscopic examination.

Experiment [6] addresses T1, IL-4R (Homo sapiens, UniProt P24394).
T1 sequence (P24394 26-825): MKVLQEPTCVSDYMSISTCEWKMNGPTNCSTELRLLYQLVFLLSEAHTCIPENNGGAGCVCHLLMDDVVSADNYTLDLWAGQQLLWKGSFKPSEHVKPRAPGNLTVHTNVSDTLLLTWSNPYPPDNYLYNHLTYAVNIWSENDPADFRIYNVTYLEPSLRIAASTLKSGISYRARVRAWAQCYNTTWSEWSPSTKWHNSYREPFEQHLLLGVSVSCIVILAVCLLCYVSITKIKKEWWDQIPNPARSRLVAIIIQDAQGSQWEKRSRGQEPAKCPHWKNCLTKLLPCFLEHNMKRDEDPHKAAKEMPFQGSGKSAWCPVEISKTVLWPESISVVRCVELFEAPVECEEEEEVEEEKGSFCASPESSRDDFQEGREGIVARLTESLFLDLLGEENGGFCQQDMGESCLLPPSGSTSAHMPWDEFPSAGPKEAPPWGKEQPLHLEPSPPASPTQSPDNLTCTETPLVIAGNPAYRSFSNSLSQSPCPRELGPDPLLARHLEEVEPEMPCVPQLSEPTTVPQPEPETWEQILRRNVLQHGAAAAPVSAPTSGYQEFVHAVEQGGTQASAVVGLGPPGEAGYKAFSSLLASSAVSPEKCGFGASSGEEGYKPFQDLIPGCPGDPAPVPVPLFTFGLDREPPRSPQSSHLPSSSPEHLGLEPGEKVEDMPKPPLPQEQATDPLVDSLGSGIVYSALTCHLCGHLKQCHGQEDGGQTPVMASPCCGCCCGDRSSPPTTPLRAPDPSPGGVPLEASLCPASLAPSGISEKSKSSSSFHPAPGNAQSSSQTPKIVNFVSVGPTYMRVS
As to the kind of experiment: Bindability of peptide to IL-4R-expressing CHO-K1 cells (fluorescence microscopy). The settings on record: 10 μM peptide, room temperature, 1 hour. It counts as binding. From the text: In order to further confirm roles of IL-4R as the receptor for the peptide of the present invention, a plasmid capable of expressing IL-4R (Cat. #TC119877, Origene, USA) was introduced into IL-4R-deficient CHO-K1 cells according to a conventional method known in the art, followed by expression of IL-4R, and binding of IL-4R with the peptide of the present invention was examined.
The cells were stained with antibodies (1:200 dilution) directed against. IL-4R and cell nuclei were stained with DAPI, followed by fluorescence microscopic examination. As a result, a large amount of IL-4R (red fluorescence) was present on the cell surface (FIG. 6B). Next, CHO-K1 and CHO-K1/IL-4R cells were reacted with 10 μM of the FITC-C-RKRLDRNC peptide at room temperature for 1 hour.

In experiment [7] the target is T1, IL-4R. Put plainly: Bindability of peptide to HT-1376 cells with inhibited expression of IL-4R (siRNA). Type of experiment: binding. On the set-up: HT-1376 cells that essentially show constitutive expression of IL-4R; endogenous in cells; host or cells: HT-1376. The settings on record: same conditions as in FIG. 6 (10 μM, room temperature, 1 hour). How it is done: Silencing RNA for IL-4R (Cat. #16708A, Ambion, USA) was introduced into HT-1376 cells that essentially show constitutive expression of IL-4R, according to a conventional method known in the art, and treated for 24 hours to thereby result in substantially no expression of IL-4R, followed by evaluation of peptide binding. More specifically, 10 nM of IL-4R silencing RNA synthesized by the manufacturer was mixed with a siPORT™ NeoFX™ lipid transfection agent (Ambion, USA), and the mixture was treated for 24 hours on HT-1376 cells grown in a 4-well chamber slide, such that IL-4R silencing RNA is incorporated into the cells. Thereafter, the culture medium was replaced with one containing 10% bovine serum and the cells were recovered for 24 hours. After staining of cells with IL-4R antibodies and nuclear DAPI staining under the same conditions as in FIG. 6, a cellular expression level of IL-4R was examined. After IL-4R staining, the FITC-CRKRLDRNC peptide was reacted with the cells under the same conditions as in FIG. 6, and a binding degree of the peptide was measured.

Where [8] appears, read: peptide at 100-fold concentration.

For the molecule “CRKRLDRNC (peptide 1, completely synthesized) [peptide of the present invention]”, the “atherosclerotic targeting, comparison of the two selected phage clones” value in experiment [1] is on record as “more intense atherosclerotic targeting”. The “effect on IL-4-induced phosphorylation of STAT6” value in experiment [2] (peptide at 100-fold concentration that of IL-4 (67 nM) with 0.67 nM IL-4) was “significant inhibitory effects”. Moreover, in experiment [2] (peptide with IL-4), the “amount of total STAT6 proteins” value is reported as “not affected”. Moreover, in experiment [3] (setting [8]), the “antagonistic effect on Ser473 phosphorylation of AKT relative to Thr308” value is on record as “greater antagonistic effects” and the “level of Ser473 phosphorylation of AKT versus control group not treated with IL-4” value is reported as “inhibited to a lower level than that of the control group”. Besides, in experiment [3] (peptide at 100-fold concentration (67 nM) with 0.67 nM IL-4), the “effect on IL-4-induced phosphorylation of AKT (Thr308 and Ser473)” value is “inhibited”.
Consider “^123I-CLEVSRKNC (not fully specified (N-terminus); cysteine pairing not given here; also: 123I label, attachment not given here) [123I-tagged control peptide for autoradiography]”, for which the “radioactivity resulting from aortic targeting of the peptide” value in experiment [4] (aortae of atherosclerotic mice, 160 μCi (111In peptide) or 104 μCi (123I control)) is “substantially no detection of radioactivity”; in experiment [4] (aortae of normal mice, 104 μCi (123I control)) it was “substantially no detection of radioactivity”.
For “FITC-NSSVDK ({FITC}-NSSVDK) [FITC-labeled control peptide, reference compound]”, the “peptide found in aortic atherosclerotic plaque tissues (green fluorescence)” value in experiment [5] was “substantially no control peptide was found”. Also, the “binding to CHO-K1/IL-4R cells (IL-4R-expressing)” value with IL-4R [6] was “no binding”. In addition, the “binding to HT-1376 cells (constitutive expression of IL-4R)” value with IL-4R [7] is on record as “almost no binding”.

B1: IL-4: cytokine used as stimulus of STAT6 and AKT phosphorylation (protein)
chain: HKCDITLQEIIKTLNSLTEQKTLCTELTVTDIFAASKNTTEKETFCRAATVLRQFYSHHEKDTRCLGATAQQFHRHKQLIRFLKRLDRNLWGLAGLNSCPVKEANQSTLENFLERLKTIMREKYSKCSS
Regarding B1, the “phosphorylation of STAT6 induced by IL-4” value in experiment [2] (0.67 nM IL-4 alone, 10 min) is given as “significant increase”. Moreover, the “Thr308 and Ser473 phosphorylation of AKT induced by IL-4” value in experiment [3] (0.67 nM IL-4, 10 min) is “slightly increased”.
